Experimental data as given in US20260365671A1, “HETEROCYCLIC COMPOUND” (Takeda Pharmaceutical Company Limited, priority 2022, published 2026).

Assays:
[1] = target: T1, NLRP3 inflammasome (Homo sapiens, UniProt Q96P20); assay: IL-1β TR-FRET assay (THP-1 cells differentiated to macrophages with IFN-γ, LPS primed, ATP activated; HTRF); assay type: cell-based; conditions: THP-1 macrophages, 50 ng/mL LPS priming, compound 30 min, 20 mM ATP 2 hours
T1 construct: IL-1beta HTRF
Description: (§1) The biological activity of Compound (I) with respect to NLRP3 was determined using the following in vitro methods.
IL-1β TR-FRET Assay (Reported as IC50)
Monocytic THP-1 cells (ATCC: TIB-202) were maintained in accordance with the provider's instructions in RPMI media (Life Technologies, Cat #A10491-01); RPMI was supplemented with 10% heat inactivated fetal bovine serum (Corning, Cat #35-010-CV). The cells were differentiated into macrophages by the addition of 25 ng/mL IFN-γ (PeproTech, Cat #AF300-02-100UG) for 24 hours at 37 °C/5% CO2. Media was exchanged with fresh media with no FBS, and the cells were treated with 50 ng/mL LPS (priming step) (LPS-EK: Invivogen, Cat #tlrl-peklps). The cells were plated at 240,000 cells per well in 384-well flat-bottom cell culture plates (FALCON, Cat #353962) and were incubated for 24 hours at 37 °C/5% CO2. Compounds were serially diluted (half log dilutions) with DMSO and were finally diluted with Media with no FBS. The compounds were added to the cells in 384-well plates (added in 1:3) and then the plates were incubated for 30 minutes at 37 °C/5% CO2. The NLRP3 inflammasome was activated with the addition of 20 mM ATP (Sigma Cat #A3377-25G) and the cells were incubated for 2 hours at 37 °C/5% CO2. At the end of the incubation period, 30 μL supernatant was transferred to another 384-well plate and mixed on a plate shaker for 1 minutes. The supernatant was mixed with HTRF Antibody (Human IL1 beta kit, Cisbio, 62HIL1BPEH) in assay plates (Greiner Bio-One, Cat #784075) and the assay plates were incubated in shading box at room temperature for 16-24 hours. HTRF signal was measured by EnVision (Perkinelmer) in accordance with the manufacturer's instructions.
(§2) The IC50 values were calculated from a plot of percentage of inhibition versus the inhibitor concentration by a logistics curve fit according to: Y=[Bottom+(Top−Bottom)]/(1+10^[(Log IC50−X)·Hill Slope], where Y is the % inhibition at the inhibitor concentration, X, “Bottom” is the lowest inhibition value, i.e., 0%, “Top” is the maximum inhibition value, i.e., 100%, and the “Hill Slope” describes the slope of the sigmoidal curve between the “Bottom” and “Top” values. The curve fitting was conducted with XLfit (ver. 5.5.0.5, ID Business Solutions Limited) or internally developed software.
(§3) Table 2 lists in vitro biological assay data (IL-1β and TNF-α) for the compounds shown in the examples. These assays are described in the section entitled Biological Activity, above.

[2] = system: NF-κB pathway; assay: TNF-α assay (THP-1 cells differentiated to macrophages with IFN-γ, NF-κB pathway activated with LPS; ELISA); assay type: cell-based, Human; conditions: Homo sapiens, THP-1, THP-1 macrophages, compound 30 min, 50 ng/mL LPS 3 hours
Description: as §1
TNF-α Assay (Reported as IC50)
Monocytic THP-1 cells (ATCC: TIB-202) were maintained in accordance with the provider's instructions in RPMI media (Life Technologies, Cat #A10491-01); RPMI was supplemented with 10% heat inactivated fetal bovine serum (Hyclone Cat #SH30396.03). The cells were differentiated into macrophages by the addition of 25 ng/mL IFN-γ for 24 hours at 37 °C/5% CO2. Media was exchanged with fresh media with no FBS. The cells were plated at 40,000 cells per well in 384-well flat-bottom cell culture plates (Costar 3764) containing compounds (added in 1:1000) in a 1:3.16 serial dilution series in DMSO and were incubated for 30 minutes at 37 °C/5% CO2. The NF-κB pathway was activated with the addition of 50 ng/mL LPS and the cells were incubated for 3 hours at 37 °C/5% CO2. At the end of the incubation period, supernatant ([…]) was removed, and […] were monitored using an ELISA (Human TNF-α ELISA, R&D systems, Cat #DY210) according to the manufacturer's instructions.
as §2, §3

T1 sequence (Q96P20 whole entry): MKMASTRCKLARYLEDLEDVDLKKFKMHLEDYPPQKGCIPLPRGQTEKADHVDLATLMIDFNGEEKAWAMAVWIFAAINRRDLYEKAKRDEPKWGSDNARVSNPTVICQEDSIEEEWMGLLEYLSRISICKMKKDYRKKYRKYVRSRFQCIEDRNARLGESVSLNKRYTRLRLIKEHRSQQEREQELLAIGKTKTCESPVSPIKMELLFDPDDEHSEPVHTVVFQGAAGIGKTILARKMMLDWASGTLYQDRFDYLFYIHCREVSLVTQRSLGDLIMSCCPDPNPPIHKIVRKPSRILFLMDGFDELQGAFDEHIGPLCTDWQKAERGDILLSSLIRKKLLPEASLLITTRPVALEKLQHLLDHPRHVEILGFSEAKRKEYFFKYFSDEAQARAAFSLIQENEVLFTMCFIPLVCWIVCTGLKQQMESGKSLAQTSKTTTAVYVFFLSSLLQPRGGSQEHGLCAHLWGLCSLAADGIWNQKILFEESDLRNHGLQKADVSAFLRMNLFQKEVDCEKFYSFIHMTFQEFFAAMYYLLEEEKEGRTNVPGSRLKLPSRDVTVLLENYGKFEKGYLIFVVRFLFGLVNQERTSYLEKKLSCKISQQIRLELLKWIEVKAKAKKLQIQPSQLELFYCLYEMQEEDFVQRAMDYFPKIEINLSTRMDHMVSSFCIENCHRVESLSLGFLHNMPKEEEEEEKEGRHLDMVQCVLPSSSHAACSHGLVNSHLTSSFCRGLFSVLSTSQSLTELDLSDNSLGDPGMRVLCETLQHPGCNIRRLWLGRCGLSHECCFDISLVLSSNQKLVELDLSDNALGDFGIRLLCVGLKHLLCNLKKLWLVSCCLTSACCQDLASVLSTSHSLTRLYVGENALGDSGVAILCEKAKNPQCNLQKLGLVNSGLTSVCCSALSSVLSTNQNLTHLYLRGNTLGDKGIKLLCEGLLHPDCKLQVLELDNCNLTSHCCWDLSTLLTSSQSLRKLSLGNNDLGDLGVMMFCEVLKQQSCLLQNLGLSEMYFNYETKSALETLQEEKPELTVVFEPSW

| SMILES | IC50 [1] | IC50 [2] |
| --- | --- | --- |
| Cc1cc(C)c(-n2cc3sc(N[C@H]4C[C@@](C)(O)C4)nc3n2)c(O)c1 [Example 31, 2-{5-[(cis-3-hydroxy-3-methylcyclobutyl)amino]-2H-pyrazolo[3,4-d][1,3]thiazol-2-yl}-3,5-dimethylphenyl] | 0.65 µM | > 30 µM |
| Cc1cc(C)c(-n2cc3sc(NC4CCCC(O)C4)nc3n2)c(O)c1 (stereo not drawn) [Example 29, 2-{5-[(3-hydroxycyclohexyl)amino]-2H-pyrazolo[3,4-d][1,3]thiazol-2-yl}-3,5-dimethylphenol] | 0.54 µM | > 10 µM |
| Cc1cc(C)c(-n2cc3sc(NC45CCC(O)(CC4)C5)nc3n2)c(O)c1 [Example 57, 4-{[2-(2-hydroxy-4,6-dimethylphenyl)-2H-pyrazolo[3,4-d][1,3]thiazol-5-yl]amino}bicyclo[2.2.1]heptan-1-ol] | 0.13 µM | > 10 µM |
| Cc1cc(C)c(-n2cc3sc(N[C@H]4CNC[C@H](F)C4)nc3n2)c(O)c1 [Example 62, 2-(5-{[(3R,5R)-5-fluoropiperidin-3-yl]amino}-2H-pyrazolo[3,4-d][1,3]thiazol-2-yl)-3,5-dimethylphenol] | 0.12 µM | > 10 µM |
| CCNc1nc2nn(-c3c(C)cc(C)cc3O)cc2s1 [Example 181, 2-[5-(ethylamino)-2H-pyrazolo[3,4-d][1,3]thiazol-2-yl]-3,5-dimethylphenol] | 0.34 µM | > 30 µM |
| Cc1cc(C)c(-n2cc3sc(NCC4(O)CC4)nc3n2)c(O)c1 [Example 84, 2-(5-{[(1-hydroxycyclopropyl)methyl]amino}-2H-pyrazolo[3,4-d][1,3]thiazol-2-yl)-3,5-dimethylphenol] | 0.38 µM | > 30 µM |
| Cc1cc(C)c(-n2cc3sc(NC45CC(OC(F)F)(C4)C5)nc3n2)c(O)c1 [Example 173, 2-(5-{[3-(difluoromethoxy)bicyclo[1.1.1]pentan-1-yl]amino}-2H-pyrazolo[3,4-d][1,3]thiazol-2-yl)-3,5-dimethylphenol] | 3.5 µM | > 10 µM |
| CCC(=O)N1CCC(Nc2nc3nn(-c4c(C)cc(C)cc4O)cc3s2)CC1 [Example 132, 1-(4-{[2-(2-hydroxy-4,6-dimethylphenyl)-2H-pyrazolo[3,4-d][1,3]thiazol-5-yl]amino}piperidin-1-yl)propan-1-one] | 1 µM | > 30 µM |

The remaining molecules from weak to strong by IC50 [1], led by results:

| IC50 [1] | IC50 [2] | SMILES |
| --- | --- | --- |
| 1.3 µM | > 10 µM | Cc1cc(C)c(-n2cc3sc(NC[C@H]4CCCO4)nc3n2)c(O)c1 [Example 117, 3,5-dimethyl-2-[5-({[(2R)-oxolan-2-yl]methyl}amino)-2H-pyrazolo[3,4-d][1,3]thiazol-2-yl]phenol] |
| 0.95 µM | > 30 µM | Cc1cc(C)c(-n2cc3sc(N[C@@H]4CCN(CC(F)F)C4)nc3n2)c(O)c1 [Example 67, 2-(5-{[1-(2,2-difluoroethyl)pyrrolidin-3-yl]amino}-2H-pyrazolo[3,4-d][1,3]thiazol-2-yl)-3,5-dimethylphenol] |
| 0.46 µM | > 30 µM | Cc1cc(C)c(-n2cc3sc(N[C@H]4CN(C(=O)C5(C#N)CC5)C[C@@H]4F)nc3n2)c(O)c1 (racemic) [Example 125, racemic mixture of 1-[(3R,4R)-3-fluoro-4-{[2-(2-hydroxy-4,6-dimethylphenyl)-2H-pyrazolo[3,4-d][1,3]thiazol-5-yl]amino}pyrrolidine-1-carbonyl]cyclopropane-1-carbonitrile and 1-[(3S,4S)-3-fluoro-4-{[2-(2-hydroxy-4,6-dimethylphenyl)-2H-pyrazolo[3,4-d][1,3]thiazol-5-yl]amino}pyrrolidine-1-carbonyl]cyclopropane-1-carbonitrile] |
| 0.11 µM | > 30 µM | COc1cc(C)c(-n2cc3sc(N[C@@H]4C[C@@H](F)CN(C5CC5)C4)nc3n2)c(O)c1 [Example 174, 2-(5-{[(3R,5R)-1-cyclopropyl-5-fluoropiperidin-3-yl]amino}-2H-pyrazolo[3,4-d][1,3]thiazol-2-yl)-5-methoxy-3-methylphenol] |
